Test results taken from PubChem BioAssay (NCI).
“And” between values parts separate entries of the source, which are not always exact repeats. Equal values may be shown once.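 Test compounds were applied to cells in 96-well plates for 48 hours at 5 doses. The concentration for 50% growth inhibition is given as GI50. Definition used: TGI = concentration required for complete inhibition of growth.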

Key:
Assay in all cases: NCI anticancer screen, dose series, 48 h
UACC-257 melanoma = tested on: UACC-257 melanoma
RXF 393 renal = tested on: RXF 393 renal
HOP-92 NSCLC = tested on: HOP-92 NSCLC
SW-620 colon = tested on: SW-620 colon
RPMI-8226 leukemia = tested on: RPMI-8226 leukemia
COLO 205 colon = tested on: COLO 205 colon
NCI-H23 lung = tested on: NCI-H23 lung
SK-MEL-5 melanoma = tested on: SK-MEL-5 melanoma
OVCAR-4 ovarian = tested on: OVCAR-4 ovarian
HOP-62 NSCLC = tested on: HOP-62 NSCLC

Compound	GI50 (UACC-257 melanoma)	TGI (UACC-257 melanoma)	GI50 (RXF 393 renal)	TGI (RXF 393 renal)	GI50 (HOP-92 NSCLC)	TGI (HOP-92 NSCLC)	GI50 (SW-620 colon)	TGI (SW-620 colon)	GI50 (RPMI-8226 leukemia)	TGI (RPMI-8226 leukemia)	GI50 (COLO 205 colon)	TGI (COLO 205 colon)	GI50 (NCI-H23 lung)	TGI (NCI-H23 lung)	GI50 (SK-MEL-5 melanoma)	TGI (SK-MEL-5 melanoma)	GI50 (OVCAR-4 ovarian)	TGI (OVCAR-4 ovarian)	GI50 (HOP-62 NSCLC)	TGI (HOP-62 NSCLC)
O=C(c1c(F)ccc(NS(=O)(=O)N2CC[C@@H](F)C2)c1F)c1c[nH]c2ncc(-c3cnc(C4CC4)nc3)cc12	0.00965 µM and < 0.01 µM	0.174 µM and 0.0739 µM	3.46 µM and 4.36 µM	> 10 µM and 25 µM	0.576 µM and 2.24 µM	> 10 µM and 32.8 µM	> 7.76 µM and 10.9 µM	> 10 µM and 35 µM	5.59 µM and 5.45 µM	> 10 µM and 42.2 µM	0.00482 µM and < 0.01 µM	> 7.6 µM and 12.2 µM	> 10 µM and 10.2 µM	> 10 µM and 41.1 µM	1.01 µM and 0.651 µM	> 10 µM and 16.7 µM	6.02 µM and 4.39 µM	> 69.7 µM	6.24 µM and 7.01 µM	> 10 µM and 58.6 µM
Cc1[nH]c2ccccc2c1-c1cc(-c2cc(-c3c(C)[nH]c4ccccc34)on2)no1	–	> 100 µM	–	> 100 µM	–	> 100 µM	–	> 100 µM	–	> 100 µM	–	> 100 µM	–	> 100 µM	–	> 100 µM	–	> 100 µM	–	> 100 µM
CCCNC(=S)/N=C/c1c(O)c2ccccc2[nH]c1=O	–	> 100 µM	–	> 100 µM	–	> 100 µM	–	> 100 µM	–	> 100 µM	–	> 100 µM	–	> 100 µM	–	> 100 µM	–	> 100 µM	–	> 100 µM
N=c1ccn2c(n1)OC1C(O)C(CO)OC12 (centres undefined)	> 100 µM	> 1000 µM	> 25.1 µM	> 1000 µM	8.2 µM and 19.9 µM	> 811 µM	5.76 µM and 1.28 µM	> 1000 µM	3.97 µM	> 1000 µM	2.28 µM	> 1000 µM	0.345 µM	161 µM and > 100 µM	10.4 µM	> 1000 µM	> 100 µM	> 1000 µM	0.326 µM	130 µM
COc1ccc(-c2oc(=O)ccc2-c2cc(OC)c(OC)c(OC)c2)cc1F	31.5 µM	> 100 µM	11.6 µM	29.1 µM	5.69 µM	65 µM	5.79 µM	> 100 µM	11.1 µM	61.4 µM	18 µM	> 100 µM	25.9 µM	> 100 µM	7.46 µM	58.7 µM	36.5 µM	> 100 µM	32.7 µM	> 100 µM
CC(=O)OC12c3ccccc3-c3ccccc3C1C1C(=O)N(C)C(=O)C12Cl (centres undefined)	–	> 10 µM	–	> 10 µM	–	> 10 µM	–	> 10 µM	–	> 10 µM	–	> 10 µM	–	> 10 µM	–	> 10 µM	–	> 10 µM	–	> 10 µM
O=C(c1ccc(F)c(F)c1Nc1ccc(I)cc1F)N1CC(O)([C@@H]2CCCCN2)C1	< 0.01 µM and 0.00413 µM	0.0368 µM and 0.0363 µM	0.743 µM and 0.396 µM	7.17 µM and > 6.97 µM	0.0207 µM and 0.0577 µM	0.239 µM and 0.65 µM	< 0.0215 µM and 0.0563 µM	14.4 µM and > 10 µM	0.992 µM and 3.1 µM	18.2 µM and > 10 µM	< 0.01 µM and 0.00238 µM	4.06 µM	< 0.0436 µM and 0.129 µM	10 µM and > 10 µM	–	8.56 µM and > 10 µM	0.58 µM and > 3.96 µM	17.1 µM and > 10 µM	0.349 µM and 0.067 µM	16.9 µM and > 10 µM
CC(CC(=O)O)C(C(=O)O)C(=O)O (centres undefined)	–	> 100 µM	–	> 100 µM	–	> 100 µM	–	> 100 µM	–	> 100 µM	–	> 100 µM	–	> 100 µM	–	> 100 µM	–	> 100 µM	–	> 100 µM
CCCCCCC[CH2][Sn]1([CH2]CCCCCCC)[O]C(=O)c2cccnc2[S]1	> 100 µM	> 100 µM	> 100 µM	> 100 µM	> 100 µM	> 100 µM	> 100 µM	> 100 µM	> 100 µM	> 100 µM	> 100 µM	> 100 µM	> 100 µM	> 100 µM	> 100 µM	> 100 µM	> 100 µM	> 100 µM	> 100 µM	> 100 µM
O=c1cc(-c2ccccc2)[nH]c2c(S)cccc12	–	> 100 µM	–	> 100 µM	–	> 100 µM	–	> 100 µM	–	> 100 µM	–	> 100 µM	–	> 100 µM	–	> 100 µM	–	> 100 µM	–	> 100 µM
CCCCCCNC(=O)c1nc(-c2ccccc2)oc1Cc1ccc(OP(=O)(O)O)cc1	17.6 µM	35.6 µM	16.7 µM	31.3 µM	14.2 µM	27.9 µM	16.8 µM	33.4 µM	20.4 µM	49 µM	17 µM	31.2 µM	16.7 µM	35.4 µM	16.8 µM	30.7 µM	16.6 µM	30.8 µM	17.4 µM	32.3 µM
CC1=CC(=O)[C@@H](O)[C@]2(C)[C@H]3[C@@]4(O)OC[C@]35[C@H]([C@@H](C)[C@H]4O)[C@@H](O)C(=O)O[C@@H]5C[C@@H]12	–	1.77 µM	–	4.46 µM	–	2.51 µM	–	6.78 µM	–	> 100 µM	–	2.45 µM	–	1.7 µM	–	0.369 µM	–	6.66 µM	–	1.08 µM
COc1ccc(C(O)c2nccn2C)c(OC)c1 (centres undefined)	–	> 100 µM	–	> 100 µM	–	> 100 µM	–	> 100 µM	–	> 100 µM	–	> 100 µM	–	> 100 µM	–	> 100 µM	–	> 100 µM	–	> 100 µM
COC(=O)[C@]1(C)CCCC2(C)C1CC[C@H]1C=C(C)[C@H]3CCC12C3 (some centres undefined)	–	> 100 µM	–	> 100 µM	–	> 100 µM	–	> 100 µM	–	> 100 µM	–	> 100 µM	–	> 100 µM	–	> 100 µM	–	> 100 µM	–	> 100 µM
CCN(CC)c1nc(-c2ccc(Cl)cc2Cl)nc2ccccc12	17.3 µM	50.7 µM	17.2 µM	42.5 µM	22 µM	93.4 µM	15.5 µM	34.4 µM	32.1 µM	> 100 µM	19.5 µM	48.8 µM	22.8 µM	62.8 µM	17.8 µM	33.3 µM	51.6 µM	> 100 µM	17.3 µM	35.6 µM
COC1[C@@H](OC(C)=O)[C@@H](NC(=O)C(Cl)(Cl)Cl)C(I)[C@@H](N2C(=O)c3ccccc3C2=O)[C@H]1OC (some centres undefined)	–	> 100 µM	–	> 100 µM	–	> 100 µM	–	> 100 µM	–	> 100 µM	–	> 100 µM	–	> 100 µM	–	> 100 µM	–	> 100 µM	–	> 100 µM
